The source of these data is the NIST ThermoML archive (doi:10.1016/j.fluid.2015.12.026).

This data set in a line: wn = mass fraction of the nth substance listed. The settings on record: 101.3 kPa, Liquid, Vibrating tube method.

SMILES strings stand for the structures. Numbers after ± are expanded uncertainties.

For orientation: mass density means the mass of a sample divided by its volume. `O=C(O)CCCCC(=O)O` [1,6-hexanedioic acid] + OCCOCCO: the mass density reads like this: (298.15 K, w1 = 0.0878) 1171.8 ± 0.5 kg/m3; (313.15 K, w1 = 0.1087) 1175.7 ± 0.6 kg/m3; (333.15 K, w1 = 0.1472) 1188.2 ± 0.7 kg/m3.

`NC(N)=O` [urea] + OCCOCCO: the mass density (298.15 K, w1 = 0.2315) came to 1160.9 ± 1.1 kg/m3; the mass density (313.15 K, w1 = 0.2807) is reported as 1174.2 ± 1.3 kg/m3; the mass density (333.15 K, w1 = 0.3526) stood at 1184.5 ± 1.7 kg/m3.
